Laboratory results from US20250340552A1, “COMPOUNDS, COMPOSITIONS AND METHODS OF TREATING DISORDERS” (HOTSPOT THERAPEUTICS, INC., priority 2022, published 2025).
Read-outs that look alike come from different tables or passages of the source.

Target: T1, Cbl-B (Homo sapiens, UniProt Q13191)
T1 construct: MSD-Based Assay for Degradation of Cbl-B in THP-1 Cells; endogenous in cells; host or cells: THP-1 (title) / Jurkat (protocol text)
Test: MSD-based assay for degradation of Cbl-B in THP-1 cells
Type: cell-based
Outline: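 THP-1 cells were treated with compound for 24 h at 37 °C. Cbl-B in lysates was quantified by MSD sandwich immunoassay, with anti-Cbl-B capture antibody at 1 ug/mL and SULFO-TAG anti-rabbit detection. Maximal degradation (Dmax) was binned as A >70%, B 50–70%, C 30–50%, D <30%.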

[1] = Cbl-B degradation, Jurkat cells seeded (heading: THP-1 cells), 24 hours incubation, MSD readout
[2] = Cbl-B degradation, Jurkat cells seeded (heading: THP-1 cells), 24 hours incubation, MSD readout, read-out: Dmax

T1 sequence (Q13191 whole entry): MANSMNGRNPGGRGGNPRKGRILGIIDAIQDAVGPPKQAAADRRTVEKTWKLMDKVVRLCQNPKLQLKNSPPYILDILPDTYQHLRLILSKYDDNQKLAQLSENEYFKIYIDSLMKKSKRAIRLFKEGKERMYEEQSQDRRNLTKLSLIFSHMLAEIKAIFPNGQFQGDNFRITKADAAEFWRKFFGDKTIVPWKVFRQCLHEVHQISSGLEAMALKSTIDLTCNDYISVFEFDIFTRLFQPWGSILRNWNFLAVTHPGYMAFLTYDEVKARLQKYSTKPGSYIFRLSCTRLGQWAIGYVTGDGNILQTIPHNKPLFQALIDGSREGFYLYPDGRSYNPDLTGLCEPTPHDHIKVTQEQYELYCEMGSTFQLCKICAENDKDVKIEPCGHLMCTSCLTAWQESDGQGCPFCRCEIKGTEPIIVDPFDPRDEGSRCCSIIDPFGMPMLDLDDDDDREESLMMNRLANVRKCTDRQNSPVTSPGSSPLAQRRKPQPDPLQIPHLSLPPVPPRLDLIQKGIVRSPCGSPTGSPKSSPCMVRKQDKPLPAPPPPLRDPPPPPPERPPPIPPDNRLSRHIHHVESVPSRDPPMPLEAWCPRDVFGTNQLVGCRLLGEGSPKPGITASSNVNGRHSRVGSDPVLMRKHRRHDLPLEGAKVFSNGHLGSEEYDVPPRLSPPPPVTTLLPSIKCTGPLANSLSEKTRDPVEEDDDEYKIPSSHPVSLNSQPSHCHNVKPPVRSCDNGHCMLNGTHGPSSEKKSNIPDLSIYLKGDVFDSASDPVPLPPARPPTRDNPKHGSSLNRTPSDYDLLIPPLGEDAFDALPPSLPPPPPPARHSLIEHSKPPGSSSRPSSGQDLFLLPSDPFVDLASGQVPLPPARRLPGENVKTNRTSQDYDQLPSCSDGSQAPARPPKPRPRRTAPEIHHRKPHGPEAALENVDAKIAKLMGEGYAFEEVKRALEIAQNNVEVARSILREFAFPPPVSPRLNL

Row | DC50 [1] | Dmax [2] | Compound | Dmax (THP-1)
1 | > 10 µM | < 30% | Cn1cnnc1CC1(c2cccc(-n3cc4c(C(F)(F)F)cc(CNCCOCCNc5cccc6c5C(=O)N(C5CCC(=O)NC5=O)C6=O)cn4c3=O)c2)COC1 (centres unmarked) [Compound 2] | 
2 | 0.3 to 1 µM | 50 to 70% | Cn1cnnc1CC1(c2cccc(-n3cc4c(C(F)(F)F)cc(CN5CCC(OCCOCc6ccc(COCCNc7cccc8c7C(=O)N(C7CCC(=O)NC7=O)C8=O)cc6)CC5)cn4c3=O)c2)COC1 (centres unmarked) [Compound 3] | 
3 | > 10 µM | < 30% | Cn1cnnc1CC1(c2cccc(-n3cc4c(C(F)(F)F)cc(CNCCOCCOCc5ccc(COCCNc6cccc7c6C(=O)N(C6CCC(=O)NC6=O)C7=O)cc5)cn4c3=O)c2)COC1 (centres unmarked) [Compound 4] | 
4 | > 10 µM | < 30% | Cn1cnnc1CC1(c2cccc(-n3cc4c(C(F)(F)F)cc(CN5CCC(OCCOCc6ccc(CNc7cccc8c7C(=O)N(C7CCC(=O)NC7=O)C8=O)cc6)CC5)cn4c3=O)c2)COC1 (centres unmarked) [Compound 12] | 
5 | 1 to 10 µM | < 30% | Cn1cnnc1[C@@H](c1cccc(-n2cc3c(C(F)(F)F)cc(CN4CCC(OCc5ccc(COCCNc6cccc7c6C(=O)N(C6CCC(=O)NC6=O)C7=O)cc5)CC4)cn3c2=O)c1)C1CCC1 (some centres unmarked) [Compound 13] | 
6 | 1 to 10 µM | 30 to 50% | Cn1cnnc1[C@@H](c1cccc(-n2cc3c(C(F)(F)F)cc(CN4CCC(OCCOCc5ccc(CNc6cccc7c6C(=O)N(C6CCC(=O)NC6=O)C7=O)cc5)CC4)cn3c2=O)c1)C1CCC1 (some centres unmarked) [Compound 14] | 
7 | > 10 µM | < 30% | CN(CCN1CCC(CN2CCN(c3cc4c(cc3F)C(=O)N(C3CCC(=O)NC3=O)C4=O)CC2)CC1)Cc1cc(C(F)(F)F)c2cn(-c3cccc(C4(Cc5nncn5C)COC4)c3)c(=O)n2c1 (centres unmarked) [Compound 15] | 
8 | 0.03 to 0.3 µM | 50 to 70% | Cn1cnnc1[C@@H](c1cccc(-n2cc3c(C(F)(F)F)cc(CN4CCC[C@H](OCCOCc5ccc(COCCNc6cccc7c6C(=O)N(C6CCC(=O)NC6=O)C7=O)cc5)C4)cn3c2=O)c1)C1CCC1 (some centres unmarked) [Compound 17] | 
9 | > 10 µM | < 30% | Cn1cnnc1CC1(c2cccc(-n3cc4c(C(F)(F)F)cc(CN5CCC(OCCOCc6ccc(CN7CCN(c8cc9c(cc8F)C(=O)N(C8CCC(=O)NC8=O)C9=O)CC7)cc6)CC5)cn4c3=O)c2)COC1 (centres unmarked) [Compound 18] | 
10 | > 10 µM | < 30% | Cn1cnnc1CC1(c2cccc(-n3cc4c(C(F)(F)F)cc(CN5CCC(OCCOCc6ccc(CN7CCN(c8cccc9c8C(=O)N(C8CCC(=O)NC8=O)C9=O)CC7)cc6)CC5)cn4c3=O)c2)COC1 (centres unmarked) [Compound 19] | 
11 | 0.3 to 1 µM | 50 to 70% | Cn1cnnc1[C@@H](c1cccc(-n2cc3c(C(F)(F)F)cc(CC4CCC[C@@H](OCCOCc5ccc(COCCNc6cccc7c6C(=O)N(C6CCC(=O)NC6=O)C7=O)cc5)C4)cn3c2=O)c1)C1CCC1 (some centres unmarked) [Compound 20] | 
12 | 0.03 to 0.3 µM | > 70% | Cn1cnnc1[C@@H](c1cccc(N2Cc3c(cc(CN4CCC(OCCOCc5ccc(COCCNc6cccc7c6C(=O)N(C6CCC(=O)NC6=O)C7=O)cc5)CC4)cc3C(F)(F)F)C2=O)c1)C1CCC1 (some centres unmarked) [Compound 22] | 
13 | > 10 µM | < 30% | Cn1cnnc1[C@@H](c1cccc(-n2cc3c(C(F)(F)F)cc(CN4CCC(OCCOCc5ccc(CN6CCN(c7cc8c(cc7F)C(=O)N(C7CCC(=O)NC7=O)C8=O)CC6)cc5)CC4)cn3c2=O)c1)C1CCC1 (some centres unmarked) [Compound 23] | 
14 | > 10 µM | < 30% | Cn1cnnc1[C@@H](c1cccc(-n2cc3c(C(F)(F)F)cc(CN4CCC(OCCOCc5ccc(CN6CCN(c7cccc8c7C(=O)N(C7CCC(=O)NC7=O)C8=O)CC6)cc5)CC4)cn3c2=O)c1)C1CCC1 (some centres unmarked) [Compound 24] | 
15 | 0.3 to 1 µM | 30 to 50% | Cn1cnnc1CC1(c2cccc(-n3cc4c(C(F)(F)F)cc(CN5CCC(OCCN6CCC(CN7CCCN(c8ccc9c(c8)CN(C8CCC(=O)NC8=O)C9=O)CC7)CC6)CC5)cn4c3=O)c2)COC1 (centres unmarked) [Compound 25] | 
16 | > 10 µM | < 30% | Cn1cnnc1[C@@H](c1cccc(-n2cc3c(C(F)(F)F)cc(CN4CCC(COCc5ccc(CN6CCN(c7cccc8c7C(=O)N(C7CCC(=O)NC7=O)C8=O)CC6)cc5)CC4)cn3c2=O)c1)C1CCC1 (some centres unmarked) [Compound 28] | 
17 | 0.03 to 0.3 µM | 30 to 50% | Cn1cnnc1[C@@H](c1cccc(-n2cc3c(C(F)(F)F)cc(CN4CCC[C@H](OCCOCc5ccc(COCCNc6cccc7c6C(=O)N(C6CCC(=O)NC6=O)C7=O)cc5)CC4)cn3c2=O)c1)C1CCC1 (some centres unmarked) [Compound 32] | 
18 | 1 to 10 µM | < 30% | Cn1cnnc1CC1(c2cccc(-n3cc4c(C(F)(F)F)cc(CN5CCC(OCCNc6cccc7c6C(=O)N(C6CCC(=O)NC6=O)C7=O)CC5)cn4c3=O)c2)COC1 (centres unmarked) [Compound 36] | 
19 | 1 to 10 µM | < 30% | Cn1cnnc1[C@@H](c1cccc(-n2cc3c(C(F)(F)F)cc(CN4CCC(OCCNc5cccc6c5C(=O)N(C5CCC(=O)NC5=O)C6=O)CC4)cn3c2=O)c1)C1CCC1 (some centres unmarked) [Compound 37] | 
20 | 0.3 to 1 µM | 50 to 70% | Cn1cnnc1CC1(c2cccc(-n3cc4c(C(F)(F)F)cc(CN5CC[C@@H](OCCOCc6ccc(COCCNc7cccc8c7C(=O)N(C7CCC(=O)NC7=O)C8=O)cc6)C5)cn4c3=O)c2)COC1 (some centres unmarked) [Compound 45] | 
21 | 0.03 to 0.3 µM | > 70% | Cn1cnnc1[C@@H](c1cccc(-n2cc3c(C(F)(F)F)cc(CN4CCC[C@H](OCCN5CCC(CN6CCN(c7ccc8c(c7)CN([C@H]7CCC(=O)NC7=O)C8=O)CC6)CC5)C4)cn3c2=O)c1)C1CCC1 [Compound 56] | 

Row | Compound | DC50 [1] | Dmax [2] | Dmax (THP-1)
22 | Cn1cnnc1CC1(c2cccc(-n3cc4c(C(F)(F)F)cc(CN5CCC(OCCN6CCC(CN7CCN(c8cc9c(cc8F)C(=O)N(C8CCC(=O)NC8=O)C9=O)CC7)CC6)CC5)cn4c3=O)c2)COC1 (centres unmarked) [Compound 7] | > 10 µM |  | < 30%
23 | Cn1cnnc1[C@@H](c1cccc(-n2cc3c(C(F)(F)F)cc(CN4CCC(OCCN5CCC(CN6CCN(c7cc8c(cc7F)C(=O)N(C7CCC(=O)NC7=O)C8=O)CC6)CC5)CC4)cn3c2=O)c1)C1CCC1 (some centres unmarked) [Compound 16] | 1 to 10 µM | 30 to 50% | 
24 | Cn1cnnc1CC1(c2cccc(N3Cc4c(cc(CN5CCC(OCCOCc6ccc(COCCNc7cccc8c7C(=O)N(C7CCC(=O)NC7=O)C8=O)cc6)CC5)cc4C(F)(F)F)C3=O)c2)COC1 (centres unmarked) [Compound 21] | 1 to 10 µM | 30 to 50% | 
25 | Cn1cnnc1[C@@H](c1cccc(-n2cc3c(C(F)(F)F)cc(CN4CCC(CN5CCC(CN6CCN(c7cc8c(cc7F)C(=O)N(C7CCC(=O)NC7=O)C8=O)CC6)CC5)CC4)cn3c2=O)c1)C1CCC1 (some centres unmarked) [Compound 29] | > 10 µM | < 30% | 
26 | Cn1cnnc1[C@@H](c1cccc(-n2cc3c(C(F)(F)F)cc(CN4CCC(C(=O)N5CCC(CN6CCN(c7cc8c(cc7F)C(=O)N(C7CCC(=O)NC7=O)C8=O)CC6)CC5)CC4)cn3c2=O)c1)C1CCC1 (some centres unmarked) [Compound 30] | > 10 µM | < 30% | 
27 | Cn1cnnc1[C@@H](c1cccc(-n2cc3c(C(F)(F)F)cc(CN4CCC[C@@H](OCCOCc5ccc(COCCNc6cccc7c6C(=O)N(C6CCC(=O)NC6=O)C7=O)cc5)CC4)cn3c2=O)c1)C1CCC1 (some centres unmarked) [Compound 31] | 0.03 to 0.3 µM | 50 to 70% | 
28 | CN(CCOC1CCN(Cc2cc(C(F)(F)F)c3cn(-c4cccc([C@H](c5nncn5C)C5CCC5)c4)c(=O)n3c2)CC1)C(=O)c1ccc(N2CCN(c3cccc4c3C(=O)N(C3CCC(=O)NC3=O)C4=O)CC2)cc1 (some centres unmarked) [Compound 33] | > 10 µM | < 30% | 
29 | CN(CCOC1CCN(Cc2cc(C(F)(F)F)c3cn(-c4cccc([C@H](c5nncn5C)C5CCC5)c4)c(=O)n3c2)CC1)C(=O)c1ccc(N2CCN(c3ccc4c(c3)CN([C@H]3CCC(=O)NC3=O)C4=O)CC2)cc1 [Compound 34] | 0.03 to 0.3 µM |  | > 70%
30 | CN(CCOC1CCN(Cc2cc(C(F)(F)F)c3cn(-c4cccc([C@H](c5nncn5C)C5CCC5)c4)c(=O)n3c2)CC1)C(=O)c1ccc(N2CCN(c3ccc4c(c3)CN([C@@H]3CCC(=O)NC3=O)C4=O)CC2)cc1 [Compound 35] | 0.3 to 1 µM | 50 to 70% | 
31 | Cn1cnnc1[C@@H](c1cccc(-n2cc3c(C(F)(F)F)cc(CN4CCC(CN5CCC(CN6CCN(c7ccc8c(c7)CN(C7CCC(=O)NC7=O)C8=O)CC6)CC5)CC4)cn3c2=O)c1)C1CCC1 (some centres unmarked) [Compound 38] | 1 to 10 µM | 50 to 70% | 
32 | Cn1cnnc1CC1(c2cccc(-n3cc4c(C(F)(F)F)cc(CN5CCC(N6CCN(c7ccc8c(c7)CN(C7CCC(=O)NC7=O)C8=O)CC6)CC5)cn4c3=O)c2)COC1 (centres unmarked) [Compound 39] | > 10 µM |  | < 30%
33 | Cn1cnnc1CC1(c2cccc(-n3cc4c(C(F)(F)F)cc(CN5CCC(CN6CCC(CN7CCN(c8ccc9c(c8)CN(C8CCC(=O)NC8=O)C9=O)CC7)CC6)CC5)cn4c3=O)c2)COC1 (centres unmarked) [Compound 42] | > 10 µM |  | < 30%
34 | Cn1cnnc1CC1(c2cccc(-n3cc4c(C(F)(F)F)cc(CN5CCC(C(=O)N6CCC(CN7CCN(c8ccc9c(c8)CN(C8CCC(=O)NC8=O)C9=O)CC7)CC6)CC5)cn4c3=O)c2)COC1 (centres unmarked) [Compound 43] | > 10 µM |  | < 30%
35 | Cn1cnnc1[C@@H](c1cccc(-n2cc3c(C(F)(F)F)cc(CN4CCC(C(=O)N5CCC(CN6CCN(c7ccc8c(c7)CN(C7CCC(=O)NC7=O)C8=O)CC6)CC5)CC4)cn3c2=O)c1)C1CCC1 (some centres unmarked) [Compound 44] | > 10 µM | 30 to 50% | 
36 | Cn1cnnc1CC1(c2cccc(-n3cc4c(C(F)(F)F)cc(CN5CC[C@H](OCCOCc6ccc(COCCNc7cccc8c7C(=O)N(C7CCC(=O)NC7=O)C8=O)cc6)C5)cn4c3=O)c2)COC1 (some centres unmarked) [Compound 46] | > 10 µM | 30 to 50% | 
37 | Cn1cnnc1[C@@H](c1cccc(-n2cc3c(C(F)(F)F)cc(CN4CCC[C@H](OCCN5CCC(CN6CCN(c7ccc8c(c7)CN([C@@H]7CCC(=O)NC7=O)C8=O)CC6)CC5)C4)cn3c2=O)c1)C1CCC1 [Compound 55] | 1 to 10 µM | 30 to 50% | 
